Data taken from a melting point compilation (Tetko et al.; mined from patent text by program, amines drawn as free bases though some values may be those of a salt).

Row | Structure (SMILES) | melting point [°C]
1 | CC1(C)CCc2c(N3CCOCC3)nc3sc4c(NCc5cccnc5)ncnc4c3c2C1 | 249
2 | O=C(c1ccc(OCc2ccccc2)cc1O)c1ccc(OCc2ccccc2)cc1O | 140 to 142
3 | C=CCCC(C)(NC(c1ccccc1)c1ccccc1)P(O)O (configuration not stated) | 180
4 | COc1ccccc1SCC1SCCN1C(=S)CC(C)=O (configuration not stated) | 62 to 64
5 | CCCCCCCCCCCCCCCCCCOc1cc(N)cc([N+](=O)[O-])c1 | 106 to 108
6 | Nc1nc(NCc2ccccc2)c2ncn(C3CC(F)C(CO)O3)c2n1 (configuration not stated) | 90 to 94
7 | Cc1nccc2[nH]c(=O)c(C(N)=O)cc12 | > 320
8 | COc1cccc2c1CC(N=[N+]=[N-])C(O)C2 (configuration not stated) | 83 to 84
9 | CCOCCn1cccc1-c1nc(-c2ccc(OC)cc2)c(-c2ccc(OC)cc2)s1 | 68 to 71
10 | Nc1ccc(C(=O)N2CCOCC2)cc1OCc1ccc(-c2ccccc2-c2nnnn2C(c2ccccc2)(c2ccccc2)c2ccccc2)cc1 | 95 to 105
11 | N=C(N)c1ccc2cc(OC(=O)CC3CCCCC3)ccc2c1 | 203 to 205
12 | O=C([C@@H]1CCCN1S(=O)(=O)c1ccc2ccccc2c1)N1C[C@H](c2ccc(Cl)cc2)Sc2ccc3ccccc3c21 | 204 to 205
13 | CS(=O)c1ccc(-c2oncc2CCCO)cc1 (configuration not stated) | 73 to 74
14 | C=CCN1C(=O)CN(c2ccc(OCc3ccccc3)cc2)C1=S | 130
15 | CCc1nc2c(Br)cccc2cc1C | 54
16 | CCCCc1ccnc(C2(C(=S)NC)CCCS2)c1 (configuration not stated) | 102
17 | CCCCCCCCCCCCc1c[nH]c(C=O)c1 | 64 to 65
18 | CNc1nc(-c2ccc(Br)cc2)cs1 | 147
19 | CSc1nc(O)nn1-c1ccccc1 | 176 to 177
20 | CC1CC(=O)NN=C1c1ccc(O)cc1 (configuration not stated) | 268 to 273
21 | CN1CC[C@@H](c2c(O)cc(O)c3c(=O)cc(-c4ccc(N)cc4)oc23)[C@@H]1CO | 172 to 174
22 | c1c[nH]c(C(c2ccc[nH]2)C23CC4CC(C2)CC(C(c2ccc[nH]2)c2ccc[nH]2)(C4)C3)c1 | 110 to 112
23 | O=S1(=O)N=CN(C2CC2)c2cc(I)ccc21 | 304 to 307
24 | CC1(C)COC(=O)N1c1nc(-c2ccc(Cl)c(F)c2)cs1 | 140 to 142
25 | CSC(=C[N+](=O)[O-])NCCCCc1ccccn1 | 78
26 | CCCC[C@H](NC(=O)[C@H](CC(=O)O)NC(=O)Nc1ccc([N+](=O)[O-])cc1)C(=O)OC | 204 to 205
27 | CS(=O)(=O)c1cccc(Nc2cc(-c3ccc(C(F)(F)F)cc3)ncn2)c1 | 204 to 205

Row | Structure (SMILES) | melting point [°C]
28 | Cn1cc(Br)cc(Nc2cc(C3CC3)n[nH]2)c1=O | 203 to 204
29 | CN(C)c1ccc(-c2n[nH]c(=O)c3cc(N(C)C)ccc23)cc1 | 230 to 233
30 | OCc1cc(F)nc(F)c1 | 66 to 67
31 | CN1C(=O)[C@H](NC(=O)COc2ccc(Cl)cc2Cl)N=C(c2ccccc2)c2ccccc21 | 206
32 | O=C(NCCN1CCOCC1)c1ccc2cc(C(=O)O)[nH]c2c1 | 227 to 233
33 | C#CCCCCCCCCC(c1ccc(Cl)cc1)C1(S(=O)(=O)c2ccc(OC)cc2)SC(=O)NC1=O (configuration not stated) | 114 to 121
34 | COc1ccc(-c2cc(C=O)cc3ccoc23)cc1 | 79 to 80
35 | COC(=O)CCCCCCCC(=O)CCC(=O)COC(C)=O | 64 to 65
36 | CN1Cc2c(C(N)=O)ncn2-c2ccc(F)c(Cl)c2C1=O | 292 to 294
37 | CCCCSC1(SCCCC)CCC2C3CCC4=CC(=O)C=CC4(C)C3(F)C(O)CC21C (configuration not stated) | 160 to 162
38 | CC1CCC(C)C1C(=O)O (configuration not stated) | 45
39 | Cc1nc(OC[C@@H]2COC(C)(C)O2)c(C#N)c(N2CCc3ccccc3CC2)n1 | 110 to 112
40 | CC(C)(C)C(=O)c1c[nH]c2ncc(C3CC3)nc12 | 266 to 268
41 | C[C@H]1CCCC(C)(C)[C@@H]1[C@H](O)c1ccc(C(F)(F)F)c(F)c1 | 71 to 73
42 | CCOCCN(CC)c1ccc(-c2ccc3c(c2)C=C(C(=O)Nc2ccc(CN(C)C4CCOCC4)cc2)CCS3(=O)=O)cc1 | 194 to 197
43 | NC(=O)c1sc2nc(N3CCC(NCC(O)c4ccc5ncccc5c4)CC3)cc(C(F)(F)F)c2c1N (configuration not stated) | 217 to 219
44 | COc1ccc2c(c1)CC(CC#N)C2=O (configuration not stated) | 117 to 120
45 | CC1(C)C=C(C#N)c2cc3nonc3cc2O1 | 136 to 138
46 | CN1CCOc2cc(-c3cnc4[nH]cc(C(=O)C5(C)CCCCC5)c4n3)ccc21 | 243 to 244
47 | CS(=O)(=O)c1ccc(-c2nc(-c3ccc(F)cc3)c(-c3ccncc3)[nH]2)cc1 | 148 to 149
48 | CCOc1cc2oc(=O)c3c(c2cc1OCC)CCN(CC(C)=O)C3 | 146 to 148
49 | N#Cc1cc(F)c(Sc2nc[nH]n2)cc1F | 185
50 | CC(=O)C(C)(C)C(C=C(Cl)C(F)(F)F)OS(C)(=O)=O (configuration not stated) | 50 to 52
51 | COc1cc(C(C)=O)ccc1OCCCN1CCC(C(O)(c2ccc(F)c(F)c2)c2ccc(F)c(F)c2)CC1 | 143 to 146
52 | CN(C(=O)OC(C)(C)C)c1cc(Oc2ccc(Oc3ccccc3)cc2)ccc1N | 105 to 106
53 | C=CCCC(O)C(C)(C)N1COC(C)=C(c2ccccc2)C1=O (configuration not stated) | 74 to 75

Further lines, results first:

Row | melting point [°C] | Structure (SMILES)
54 | 259 to 260 | CCCOc1ccccc1C1=NC(=O)C2=NC(c3ccccc3)=NC2=N1
55 | 223 to 226 | CN(C)Cc1cc([N+](=O)[O-])cc2c(Nc3cccc(Br)c3)c(C#N)cnc12
56 | 128 | COC(=O)Nc1ccc2ccccc2c1-c1c(P(=O)(c2ccccc2)c2ccccc2)ccc2ccccc12
57 | 161 to 163 | COc1nc2cc(Cl)c(Cl)c(CS(C)(=O)=O)c2nc1OC
58 | 140 to 141 | CC(C)(C)OC(=O)Nc1c(C#N)cnn1-c1ccc(Cl)c(Cl)c1Cl
59 | 200 to 202 | CCOC(=O)C(=O)Nc1cccc(O)c1C(N)=O
60 | 203 to 205 | CN(C)CCOc1ccc2oc(-c3cc4ccccc4cn3)cc(=NO)c2c1
61 | 206 to 208 | COc1cccc(NC(=S)NC(NC(=O)c2ccc(C)cc2)C(F)(F)F)c1 (configuration not stated)
62 | 146 to 147 | Cc1cc(C)c2nc(C)c(NC(=O)Nc3cccc(C(F)(F)F)c3)c(-c3ccccc3Cl)c2c1
63 | 126 to 136 | COc1cc(C(=O)NS(=O)(=O)c2ccccc2Cl)ccc1Cc1c(Cl)n(C)c2ccc(CC(C)NC(=O)N(C)C)cc12 (configuration not stated)
64 | 87.6 to 88.9 | CCCNC(=O)c1ccccc1
65 | 143 to 144 | NC(=O)N(O)C1C=C(c2cccc(Oc3ccc(Cl)cc3)c2)CC1 (single isomer, unassigned; (+))
66 | 173 to 174 | COc1cccc(-c2c(Cl)c(CN3CCCCC3)nc3sc4c(c23)CCN(Cc2ccccc2)C4)c1OC
67 | 245 | CCN(CC)c1ccc(C(O)C#Cc2ccc(C(=O)O)c(O)c2)cc1C(C)(C)C (configuration not stated)
68 | 136 to 137 | CCOC(=O)C1=C(C)Nc2ccnc(OC(C)C)c2C1c1ccccc1 (configuration not stated)
69 | 190 to 191 | COC(=O)c1c(CN2CCC(S(C)(=O)=O)CC2)c(=O)c2ccc(F)cc2n1-c1ccccc1
70 | 174 to 176 | COCCOc1nn2c(-c3ccc(OC)cc3)nnc2c2ccccc12
71 | 182 to 183 | CC(=O)n1cc(C#N)c(-c2ccc(F)c(Cl)c2F)c1
72 | 157 | COc1ccc(CN(C)CCCCc2ccc(NC(=O)c3cccc4c(=O)c5cccc(OC)c5[nH]c34)cc2)cc1OC
73 | 92 to 94 | Cc1cc(SC2=C(O)CC(CCc3cccc(O)c3)(CCc3cccc(O)c3)OC2=O)c(C(C)(C)C)cc1CO
74 | 305 to 310 | COc1cc2c(=O)c(C#N)c[nH]c2cc1NC(C)=O
75 | 119 | O=C(NC(Cc1c[nH]c2ccccc12)C(=O)OCc1ccc(Cl)cc1)c1ccccc1 (configuration not stated)

Row | melting point [°C] | Structure (SMILES)
76 | 221 to 223 | N#Cc1cnc2sc(-c3cccc(C=O)c3)cc2c1Nc1ccc2[nH]ccc2c1
77 | 164 to 165 | CCC1CCC(=O)C=C1c1ccc(OCC(=O)O)c(Cl)c1Cl (configuration not stated)
78 | 196 to 197 | Cc1ccc(C(=O)NC(Cc2cccc(Br)c2)C(=O)O)cc1 (configuration not stated)
79 | 195 | COc1ccc(Cl)cc1C(=O)NCCc1ccc(-c2ccco2)c(S(N)(=O)=O)c1
80 | > 260 | CC(=O)Nc1nc(N)nc(-c2ccc(-c3ccccc3)cc2)n1
81 | 166 | O=C1c2ccccc2C(=O)N1CCOc1cccc2c1SCCC2
82 | 199 to 201 | COc1cc(OCC(CO)CO)c(-c2cccs2)cc1C=CC(=O)c1ccc(C(=O)O)cc1
83 | 238 to 248 | Cc1[nH]c(C(=O)NCCCN(C)C)c(C)c1-c1nc2ccc(C(=O)c3ccccc3)cc2[nH]1
84 | 87 to 88 | C[C@H](NC(=O)OCC1c2ccccc2-c2ccccc21)C(=O)N1[C@H](C)C(=O)OC[C@@H]1c1ccccc1
85 | 171 to 173 | CCOC(=O)Cc1c(C#N)cnc2c(NC(=O)c3c(Cl)cccc3Cl)cccc12
86 | 100 to 101 | COc1ccc(Nc2ccc(OCc3ccccc3)cc2)c(CO)c1
87 | 46.5 to 58.8 | CC(C)C(=O)CC(=O)Nc1ccccc1
88 | 97 to 98 | CCOC(=O)C(=O)CC(=O)C=Cc1ccc(O)c(OC)c1
89 | 142 to 144 | CC(=O)c1ccc(S(=O)(=O)NCCCn2ccnc2)cc1
90 | 100 to 102 | COc1ccccc1C(=O)Nc1ccc(-n2nc(C(F)(F)F)cc2C(F)(F)F)cc1
91 | 205 to 206 | CC(C)(C)OC(=O)C(CSCc1ccc(-c2ccc(-c3cccc4c3oc3ccccc34)cc2)cc1)C(=O)O (configuration not stated)
92 | 108 to 110 | Nc1ccc2ccccc2c1S
93 | 73 | CC(Oc1ccc2c(c1)OCC(Cc1ccccn1)C2O)c1ccc2ccccc2n1 (configuration not stated)
94 | 173 to 175 | CCOC(=O)C1=C(N)Nc2ccnc(OC(C)C)c2C1c1ccccc1C(F)(F)F (configuration not stated)
95 | 96 to 97 | COc1ccc2c(c1)c(CC(=O)OCC(=O)OC(C)(C)C)c(C)n2C(=O)c1ccc(Cl)cc1
96 | > 225 | Cc1sc2c(Br)c3ccccc3c(-c3ccc(OS(=O)(=O)c4ccc(C(=O)O)c(O)c4)c(C(C)C)c3)c2c1C
97 | 149 to 150 | CC#CC(C)(C)NC(=O)C(CC)Oc1ccc2ccncc2c1 (configuration not stated)
